This passage reports normalised inhibition (eCFP-eYFP dual reporter) results from the OligoGym collection.

Oligonucleotides are written 5' to 3', each unit as a sugar letter and its base; * is a phosphorothioate linkage, no mark a phosphodiester; rarer units and linkages stand in square brackets, end groups in braces. Plain capitals give the bases only. Oligonucleotides are given in HELM: sugar(base)linkage, 5' to 3'; d 2'-deoxyribose, r ribose, m 2'-O-methylribose, p phosphate. ss, as = sense and antisense strand; d = 2'-deoxy (DNA); r = 2'-OH (RNA)
Further: test concentration or dose not given here.

The target of one data set is Cacnb1 (rat). The experiment in a line: reporter assay of Huesken 2005. Conditions: siRNA. In general terms: A reporter such as luciferase makes a cellular process visible.
Turning to “RNA1{r(A)p.r(A)p.r(C)p.r(C)p.r(A)p.r(A)p.r(U)p.r(U)p.r(G)p.r(G)p.r(A)p.r(A)p.r(G)p.r(A)p.r(U)p.r(G)p.r(C)p.r(C)p.r(U)p.d(T)p.d(T)}|RNA2{r(A)p.r(G)p.r(G)p.r(C)p.r(A)p.r(U)p.r(C)p.r(U)p.r(U)p.r(C)p.r(C)p.r(A)p.r(A)p.r(U)p.r(U)p.r(G)p.r(G)p.r(U)p.r(U)p.d(C)p.d(T)}$$$RNA1{StrandType:ss}|RNA2{StrandType:as}$”, the normalised inhibition (eCFP-eYFP dual reporter) is 50%. Same read-out and setting: the same measure for “RNA1{r(A)p.r(A)p.r(C)p.r(C)p.r(G)p.r(C)p.r(C)p.r(U)p.r(C)p.r(A)p.r(G)p.r(C)p.r(U)p.r(C)p.r(C)p.r(A)p.r(G)p.r(C)p.r(A)p.d(T)p.d(T)}|RNA2{r(U)p.r(G)p.r(C)p.r(U)p.r(G)p.r(G)p.r(A)p.r(G)p.r(C)p.r(U)p.r(G)p.r(A)p.r(G)p.r(G)p.r(C)p.r(G)p.r(G)p.r(U)p.r(U)p.d(T)p.d(T)}$$$RNA1{StrandType:ss}|RNA2{StrandType:as}$”: 46.2%.

For “RNA1{r(A)p.r(A)p.r(G)p.r(A)p.r(A)p.r(U)p.r(G)p.r(A)p.r(G)p.r(C)p.r(U)p.r(G)p.r(G)p.r(A)p.r(G)p.r(G)p.r(G)p.r(C)p.r(U)p.d(T)p.d(T)}|RNA2{r(A)p.r(G)p.r(C)p.r(C)p.r(C)p.r(U)p.r(C)p.r(C)p.r(A)p.r(G)p.r(C)p.r(U)p.r(C)p.r(A)p.r(U)p.r(U)p.r(C)p.r(U)p.r(U)p.d(A)p.d(T)}$$$RNA1{StrandType:ss}|RNA2{StrandType:as}$”, the normalised inhibition (eCFP-eYFP dual reporter) was found to be 54.2%. Same read-out and setting: the result for “RNA1{r(A)p.r(A)p.r(G)p.r(G)p.r(G)p.r(C)p.r(G)p.r(G)p.r(U)p.r(U)p.r(C)p.r(A)p.r(A)p.r(A)p.r(A)p.r(G)p.r(G)p.r(U)p.r(C)p.d(T)p.d(T)}|RNA2{r(G)p.r(A)p.r(C)p.r(C)p.r(U)p.r(U)p.r(U)p.r(U)p.r(G)p.r(A)p.r(A)p.r(C)p.r(C)p.r(G)p.r(C)p.r(C)p.r(C)p.r(U)p.r(U)p.d(T)p.d(C)}$$$RNA1{StrandType:ss}|RNA2{StrandType:as}$” reads 57.7%; that for “RNA1{r(A)p.r(A)p.r(U)p.r(G)p.r(U)p.r(U)p.r(G)p.r(G)p.r(C)p.r(U)p.r(A)p.r(C)p.r(A)p.r(A)p.r(U)p.r(C)p.r(C)p.r(G)p.r(U)p.d(T)p.d(T)}|RNA2{r(A)p.r(C)p.r(G)p.r(G)p.r(A)p.r(U)p.r(U)p.r(G)p.r(U)p.r(A)p.r(G)p.r(C)p.r(C)p.r(A)p.r(A)p.r(C)p.r(A)p.r(U)p.r(U)p.d(T)p.d(G)}$$$RNA1{StrandType:ss}|RNA2{StrandType:as}$”, 90.9%. On the same count and under the same terms, the result for “RNA1{r(A)p.r(C)p.r(A)p.r(C)p.r(G)p.r(G)p.r(A)p.r(G)p.r(C)p.r(C)p.r(A)p.r(G)p.r(G)p.r(A)p.r(G)p.r(A)p.r(C)p.r(U)p.r(C)p.d(T)p.d(T)}|RNA2{r(G)p.r(A)p.r(G)p.r(U)p.r(C)p.r(U)p.r(C)p.r(C)p.r(U)p.r(G)p.r(G)p.r(C)p.r(U)p.r(C)p.r(C)p.r(G)p.r(U)p.r(G)p.r(U)p.d(A)p.d(G)}$$$RNA1{StrandType:ss}|RNA2{StrandType:as}$” reads 48.8%; that for “RNA1{r(A)p.r(C)p.r(C)p.r(C)p.r(C)p.r(A)p.r(G)p.r(C)p.r(A)p.r(A)p.r(A)p.r(C)p.r(A)p.r(C)p.r(A)p.r(U)p.r(U)p.r(A)p.r(U)p.d(T)p.d(T)}|RNA2{r(A)p.r(U)p.r(A)p.r(A)p.r(U)p.r(G)p.r(U)p.r(G)p.r(U)p.r(U)p.r(U)p.r(G)p.r(C)p.r(U)p.r(G)p.r(G)p.r(G)p.r(G)p.r(U)p.d(T)p.d(G)}$$$RNA1{StrandType:ss}|RNA2{StrandType:as}$”, 63.4%. The same measure, in the same setting: the same measure for “RNA1{r(A)p.r(G)p.r(A)p.r(A)p.r(U)p.r(G)p.r(A)p.r(G)p.r(C)p.r(U)p.r(G)p.r(G)p.r(A)p.r(G)p.r(G)p.r(G)p.r(C)p.r(U)p.r(G)p.d(T)p.d(T)}|RNA2{r(C)p.r(A)p.r(G)p.r(C)p.r(C)p.r(C)p.r(U)p.r(C)p.r(C)p.r(A)p.r(G)p.r(C)p.r(U)p.r(C)p.r(A)p.r(U)p.r(U)p.r(C)p.r(U)p.d(T)p.d(A)}$$$RNA1{StrandType:ss}|RNA2{StrandType:as}$”: 75.3%; for “RNA1{r(A)p.r(G)p.r(C)p.r(A)p.r(A)p.r(C)p.r(C)p.r(A)p.r(C)p.r(C)p.r(C)p.r(A)p.r(C)p.r(C)p.r(U)p.r(G)p.r(G)p.r(C)p.r(C)p.d(T)p.d(T)}|RNA2{r(G)p.r(G)p.r(C)p.r(C)p.r(A)p.r(G)p.r(G)p.r(U)p.r(G)p.r(G)p.r(G)p.r(U)p.r(G)p.r(G)p.r(U)p.r(U)p.r(G)p.r(C)p.r(U)p.d(G)p.d(G)}$$$RNA1{StrandType:ss}|RNA2{StrandType:as}$”: 31.6%. In the case of “RNA1{r(A)p.r(G)p.r(C)p.r(C)p.r(G)p.r(G)p.r(C)p.r(C)p.r(G)p.r(U)p.r(C)p.r(A)p.r(G)p.r(A)p.r(C)p.r(U)p.r(C)p.r(C)p.r(G)p.d(T)p.d(T)}|RNA2{r(C)p.r(G)p.r(G)p.r(A)p.r(G)p.r(U)p.r(C)p.r(U)p.r(G)p.r(A)p.r(C)p.r(G)p.r(G)p.r(C)p.r(C)p.r(G)p.r(G)p.r(C)p.r(U)p.d(C)p.d(G)}$$$RNA1{StrandType:ss}|RNA2{StrandType:as}$”, the normalised inhibition (eCFP-eYFP dual reporter) worked out at 44.2%. Take “RNA1{r(A)p.r(G)p.r(C)p.r(U)p.r(C)p.r(U)p.r(C)p.r(U)p.r(A)p.r(A)p.r(A)p.r(A)p.r(C)p.r(C)p.r(U)p.r(C)p.r(G)p.r(C)p.r(U)p.d(T)p.d(T)}|RNA2{r(A)p.r(G)p.r(C)p.r(G)p.r(A)p.r(G)p.r(G)p.r(U)p.r(U)p.r(U)p.r(U)p.r(A)p.r(G)p.r(A)p.r(G)p.r(A)p.r(G)p.r(C)p.r(U)p.d(G)p.d(G)}$$$RNA1{StrandType:ss}|RNA2{StrandType:as}$”: the normalised inhibition (eCFP-eYFP dual reporter) is 56.1%. Still for that read-out and setting: the same measure for “RNA1{r(C)p.r(A)p.r(G)p.r(G)p.r(A)p.r(G)p.r(A)p.r(U)p.r(G)p.r(A)p.r(G)p.r(G)p.r(U)p.r(G)p.r(C)p.r(C)p.r(A)p.r(G)p.r(U)p.d(T)p.d(T)}|RNA2{r(A)p.r(C)p.r(U)p.r(G)p.r(G)p.r(C)p.r(A)p.r(C)p.r(C)p.r(U)p.r(C)p.r(A)p.r(U)p.r(C)p.r(U)p.r(C)p.r(C)p.r(U)p.r(G)p.d(G)p.d(A)}$$$RNA1{StrandType:ss}|RNA2{StrandType:as}$”: 83.4%.

Another data set addresses UBE2J1. The experiment in a line: reporter assay of Huesken 2005. Conditions: siRNA.
Consider “sense rGrCrCrUrUrUrArArArArUrCrUrGrGrArArGrCdTdT / antisense rGrCrUrUrCrCrArGrArUrUrUrUrArArArGrGrCdAdA”, for which the normalised inhibition (eCFP-eYFP dual reporter) is 50.4%. Still for that read-out and setting: the same measure for “sense rGrCrGrCrCrGrGrGrCrCrCrArGrCrArGrCrArGdTdT / antisense rCrUrGrCrUrGrCrUrGrGrGrCrCrCrGrGrCrGrCdTdG”: 35.3%; for “sense rGrCrUrGrUrArCrUrGrArUrUrGrUrCrArUrCrCdTdT / antisense rGrGrArUrGrArCrArArUrCrArGrUrArCrArGrCdTdG”: 62.4%. The same measure, in the same setting: the result for “sense rGrGrArGrArGrGrGrArGrCrCrArUrArGrGrUrUdTdT / antisense rArArCrCrUrArUrGrGrCrUrCrCrCrUrCrUrCrCdTdT” reads 61%. On the same count and under the same terms, the result for “sense rGrUrUrGrCrCrUrUrUrArArArArUrCrUrGrGrAdTdT / antisense rUrCrCrArGrArUrUrUrUrArArArGrGrCrArArCdAdG” reads 55.2%; that for “sense rGrUrUrUrGrArGrCrArUrCrUrCrArGrGrCrCrAdTdT / antisense rUrGrGrCrCrUrGrArGrArUrGrCrUrCrArArArCdAdG”, 72.6%. Consider “sense rUrArArCrGrGrCrUrArArUrGrGrUrCrGrArUrUdTdT / antisense rArArUrCrGrArCrCrArUrUrArGrCrCrGrUrUrAdGdG”, for which the normalised inhibition (eCFP-eYFP dual reporter) was 84%. The same measure, in the same setting: the result for “sense rUrArArUrGrGrUrCrGrArUrUrUrGrArArGrUrGdTdT / antisense rCrArCrUrUrCrArArArUrCrGrArCrCrArUrUrAdGdC” reads 46.3%; that for “sense rUrArUrCrUrGrGrCrArArArCrGrArArUrArCrAdTdT / antisense rUrGrUrArUrUrCrGrUrUrUrGrCrCrArGrArUrAdTdA”, 91.6%; that for “sense rUrCrArUrCrArArCrCrUrArCrCrCrArArCrCrUdTdT / antisense rArGrGrUrUrGrGrGrUrArGrGrUrUrGrArUrGrAdAdA”, 47.9%. Same read-out and setting: the result for “sense rUrCrUrGrUrUrUrGrArGrCrArUrCrUrCrArGrGdTdT / antisense rCrCrUrGrArGrArUrGrCrUrCrArArArCrArGrAdTdT” reads 56%; that for “sense rUrGrCrCrArArCrArArArArGrGrArGrArGrGrGdTdT / antisense rCrCrCrUrCrUrCrCrUrUrUrUrGrUrUrGrGrCrAdTdA”, 28.7%; that for “sense rUrGrGrCrArArArCrGrArArUrArCrArUrArUrUdTdT / antisense rArArUrArUrGrUrArUrUrCrGrUrUrUrGrCrCrAdGdA”, 110%. Take “sense rUrGrGrUrGrGrGrUrCrArGrCrUrGrUrArCrUrGdTdT / antisense rCrArGrUrArCrArGrCrUrGrArCrCrCrArCrCrAdTdG”: the normalised inhibition (eCFP-eYFP dual reporter) amounted to 83.4%.

Regarding “sense rUrGrUrCrUrArCrUrUrCrArCrCrArGrArUrGrUdTdT / antisense rArCrArUrCrUrGrGrUrGrArArGrUrArGrArCrAdAdC”, the normalised inhibition (eCFP-eYFP dual reporter) came to 73.1%. Still for that read-out and setting: the result for “sense rUrUrCrArCrUrArArCrUrGrArUrUrUrArCrArAdTdT / antisense rUrUrGrUrArArArUrCrArGrUrUrArGrUrGrArAdAdA” reads 67.5%; that for “sense rUrUrCrCrArGrGrGrUrGrCrUrArCrGrGrCrCrAdTdT / antisense rUrGrGrCrCrGrUrArGrCrArCrCrCrUrGrGrArAdTdG”, 75.1%. On the same count and under the same terms, the result for “sense rUrUrGrCrCrUrUrUrArArArArUrCrUrGrGrArAdTdT / antisense rUrUrCrCrArGrArUrUrUrUrArArArGrGrCrArAdCdA” reads 70.5%; that for “sense rUrUrUrArUrCrArCrGrGrGrCrGrGrArUrArGrUdTdT / antisense rArCrUrArUrCrCrGrCrCrCrGrUrGrArUrArArAdCdT”, 51.8%.
